Measurements taken from paper PMC9643474, “The mycotoxin viriditoxin induces leukemia- and lymphoma-specific apoptosis by targeting mitochondrial metabolism” (Cell Death & Disease, 2022).

Biological target: T1, complex I (Bos taurus, UniProt P03887+P17694+P42026)
T1 construct: gene NDUFS2; whole respiratory complex I (about 45 subunits) in isolated bovine heart mitochondria, kit assay
Experiment: MitoCheck complex activity assay, isolated bovine heart mitochondria
Type: biochemical
Conditions: 15 min, decreased complex I activity, binding site unknown

T1 sequence (P17694 34-463): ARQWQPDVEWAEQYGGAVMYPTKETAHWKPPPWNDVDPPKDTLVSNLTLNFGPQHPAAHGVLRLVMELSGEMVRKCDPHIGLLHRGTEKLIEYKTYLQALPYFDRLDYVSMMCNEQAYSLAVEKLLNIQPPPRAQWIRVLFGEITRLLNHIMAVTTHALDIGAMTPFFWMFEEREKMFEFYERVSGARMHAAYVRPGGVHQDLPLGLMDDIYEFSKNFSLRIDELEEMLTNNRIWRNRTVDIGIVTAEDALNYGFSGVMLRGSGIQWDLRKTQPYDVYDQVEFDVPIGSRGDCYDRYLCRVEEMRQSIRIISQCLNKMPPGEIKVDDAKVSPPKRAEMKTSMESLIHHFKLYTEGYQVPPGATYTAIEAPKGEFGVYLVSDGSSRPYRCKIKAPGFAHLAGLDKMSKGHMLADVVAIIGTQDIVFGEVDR
T1 sequence (P42026 38-216): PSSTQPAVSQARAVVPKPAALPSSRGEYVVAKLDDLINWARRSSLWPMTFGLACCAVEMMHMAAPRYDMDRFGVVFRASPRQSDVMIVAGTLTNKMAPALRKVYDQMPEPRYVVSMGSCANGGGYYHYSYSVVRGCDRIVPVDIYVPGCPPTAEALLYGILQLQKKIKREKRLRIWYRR
T1 sequence (P03887 whole entry): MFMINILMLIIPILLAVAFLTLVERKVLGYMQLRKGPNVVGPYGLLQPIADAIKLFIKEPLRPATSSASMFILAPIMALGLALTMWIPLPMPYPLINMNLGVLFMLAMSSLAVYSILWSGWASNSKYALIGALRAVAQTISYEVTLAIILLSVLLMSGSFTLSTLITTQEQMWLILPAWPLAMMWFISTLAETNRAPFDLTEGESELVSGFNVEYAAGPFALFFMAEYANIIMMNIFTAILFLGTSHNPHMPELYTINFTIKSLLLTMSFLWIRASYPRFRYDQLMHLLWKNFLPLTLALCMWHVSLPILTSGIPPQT

COC(=O)C[C@@H]1Cc2cc3c(-c4c(OC)cc(O)c5c(O)c6c(cc45)C[C@@H](CC(=O)OC)OC6=O)c(OC)cc(O)c3c(O)c2C(=O)O1 [viriditoxin]
activity, % of DMSO control at 10 μM: we could observe a decreased activity upon treatment with VDT for complex I
